In patent publication US10870641B2, “Pyridazinones as PARP7 inhibitors” (Ribon Therapeutics Inc., priority 2018, dated 2020):

Tests used:
TIPARP (PARP7) = TIPARP (PARP7) (Homo sapiens (Human), UniProt Q7Z3E1); test: Enzymatic assay for inhibition of PARP7: displacement of biotinylated Probe A (TR-FRET); format: binding; details: TR-FRET displacement of Probe A from TIPARP
Experimental: 20 nL of a dose response curve of each test compound was spotted in black 384-well polystyrene proxiplates (Perkin Elmer) using a Mosquito (TTP Labtech). […] Reactions were incubated at 25° C. for an additional 30 min, then read on an Envision plate reader equipped with a LANCE/DELFIA top mirror (Perkin Elmer) using excitation of 320 nm and emission of 615 nm and […] with a 90 μs delay. The ratio of the 665/615 nm emission were calculated for each well to determine the amount of complex of TIPARP and Probe A in each well. […] The Hill Coefficient is normally allowed to float but may also be fixed at 1 in a 3-parameter fit. Y is the % inhibition and X is the compound concentration.

PARP7 = PARP7 (Homo sapiens (Human), UniProt Q7Z3E1); test: PARP7 inhibition potency (Table A-1); format: binding; details: comparison of separated isomers; see Table A-1
[1] = system: NCI-H1373 lung cancer cells; test: Inhibition of cancer cell growth in NCI-H1373 cells (FIG. 2); format: cell-based, human
CT26 cells = test: Inhibition of tumor growth, CT26 murine syngeneic model, subcutaneous dosing; format: in vivo; details: BALB/c mice, Compound 98 500 mg/kg S.C. QD, Compound 93A 100 mg/kg S.C. BID, 21 days
Excerpt: (§1) Example G: Inhibition of Tumor Growth by Treatment with PARP7 Inhibitors
For the CT26 study BALB/c mice were inoculated subcutaneously at the right flank with CT26 cells for tumor development. Four days after tumor inoculation, 36 mice with tumor size ranging from 40-55 mm^3 (average tumor size 47 mm^3) were selected and assigned into 3 groups using stratified randomization with 12 mice in each group based upon their tumor volumes. The treatments were started from the next day post randomization (defined randomization day as day 0) and were treated with vehicle (0.5% methylcellulose+0.2% Tween 80), Compound 98 (500 mg/kg S.C. QD*21 days), Compound 93A (100 mg/kg S.C. BID*21 days) respectively. The tumor sizes were measured three times per week during the treatment. The entire study was terminated on day 21.
(§2) Mean tumor volume and SEM for both studies are plotted. Statistical significance, calculated using two-tailed unpaired t-tests in which each treatment group was compared to vehicle control, is indicated by an asterisk. Statistics were performed on groups with less than 20% animal loss (D21 for CT26, D17 for 4T1).

4T1-luc2-1A4 cells = test: Inhibition of tumor growth, 4T1 murine syngeneic model, subcutaneous dosing; format: in vivo; details: 4T1 orthotopic syngeneic, BALB/c mice; Compound 98 500 mg/kg S.C. QD, Compound 93A 100 mg/kg S.C. BID, 21 days
Excerpt: as §1
For the 4T1 study female BALB/c mice were inoculated orthotopically in the mammary fat pad with 4T1-luc2-1A4 cells for tumor development. Eight days after tumor inoculation, 45 mice with tumor size ranging from 63-88 mm^3 (average tumor size 67 mm^3) were selected and assigned into 3 groups using stratified randomization with 15 mice in each group based upon their tumor volumes. The treatments were started from the next day post randomization (defined randomization day as D0) and were treated with vehicle (0.5% methylcellulose+0.2% Tween 80), Compound 98 (500 mg/kg S.C. QD*21 days), Compound 93A (100 mg/kg S.C. BID*21 days) respectively. The tumor sizes were measured three times per week during the treatment. The entire study was terminated on D20.
as §2

[2] = system: CT26 mouse colon cancer cells; test: Induction of interferon-beta levels in CT26 cells in the presence of STING agonist DMXAA (FIG. 3); format: cell-based
[3] = system: RAW264.7 mouse macrophages; test: Induction of interferon-beta levels in RAW264.7 macrophages in the presence of STING agonist DMXAA (FIG. 3); format: cell-based

Sequence of TIPARP (PARP7) (Q7Z3E1 whole entry): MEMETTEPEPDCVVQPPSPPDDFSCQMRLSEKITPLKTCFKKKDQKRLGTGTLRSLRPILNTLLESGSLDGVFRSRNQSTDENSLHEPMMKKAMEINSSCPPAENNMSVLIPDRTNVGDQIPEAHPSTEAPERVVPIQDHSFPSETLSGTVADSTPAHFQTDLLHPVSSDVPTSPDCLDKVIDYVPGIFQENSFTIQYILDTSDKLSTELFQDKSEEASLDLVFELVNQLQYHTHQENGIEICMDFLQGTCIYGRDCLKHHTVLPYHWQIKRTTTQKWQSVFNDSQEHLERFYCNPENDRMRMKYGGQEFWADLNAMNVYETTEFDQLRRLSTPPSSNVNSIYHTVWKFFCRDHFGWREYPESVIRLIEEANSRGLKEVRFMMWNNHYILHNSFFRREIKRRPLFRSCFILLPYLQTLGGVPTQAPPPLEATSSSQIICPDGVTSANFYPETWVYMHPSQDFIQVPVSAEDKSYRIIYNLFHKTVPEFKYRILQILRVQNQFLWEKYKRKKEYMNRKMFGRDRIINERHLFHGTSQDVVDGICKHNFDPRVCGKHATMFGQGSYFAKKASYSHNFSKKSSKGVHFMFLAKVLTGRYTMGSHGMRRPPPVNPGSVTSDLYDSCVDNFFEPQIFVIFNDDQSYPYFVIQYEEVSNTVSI
Sequence of PARP7 (Q7Z3E1 whole entry): as above

Compound | IC50 (TIPARP (PARP7)) [nM] | further results
N#Cc1ccc(N2CCN(C(=O)c3ccnc(OC[C@H]4c5ccccc5CN4c4cn[nH]c(=O)c4C(F)(F)F)c3)CC2)nc1 [Example 36A, 6-[4-[(2-[[(1R)-2-[6-oxo-5-(trifluoromethyl)-1,6-dihydropyridazin-4-yl]-2,3-dihydro-1H-isoindol-1-yl]methoxy]pyridin-4-yl)carbonyl]piperazin-1-yl]pyridine-3-carbonitrile] | ≥ 1000 | 
O=C(CCOCCOc1cn[nH]c(=O)c1Cl)N1CCN(c2ccc(Cl)cn2)CC1 [Example 523, 4-Chloro-5-(2-[3-[4-(5-chloropyridin-2-yl)piperazin-1-yl]-3-oxopropoxy]ethoxy)-2,3-dihydropyridazin-3-one] | < 100 | 
N#Cc1ccc(N2CCN(C(=O)C[C@H]3CC[C@@H]([C@@H]4CCCN4c4cn[nH]c(=O)c4C(F)(F)F)O3)CC2)nc1 [Example 141B, 6-(4-[2-[(2R,5S)-5-[(2S)-1-[6-oxo-5-(trifluoromethyl)-1,6-dihydropyridazin-4-yl]pyrrolidin-2-yl]oxolan-2-yl]acetyl]piperazin-1-yl)pyridine-3-carbonitrile] |  | relative potency of the enantiomers (PARP7): more potent enantiomer
O=C(COC[C@@H]1CCCN1c1cn[nH]c(=O)c1C(F)(F)F)N[C@H]1CC[C@H](Nc2ccccn2)CC1 [Example 80A, 2-[[(2S)-1-[6-oxo-5-(trifluoromethyl)-1,6-dihydropyridazin-4-yl]pyrrolidin-2-yl]methoxy]-N-[(1r,4r)-4-[(pyridin-2-yl)amino]cyclohexyl]acetamide] | 100 to 1000 | 
COC[C@@H](COc1cn[nH]c(=O)c1C(F)(F)F)OCCC(=O)N1CCN(c2ncc(Cl)cn2)CC1 [Example 560A, 5-[(2S)-2-[3-[4-(5-chloropyrimidin-2-yl)piperazin-1-yl]-3-oxopropoxy]-3-methoxypropoxy]-4-(trifluoromethyl)-2,3-dihydropyridazin-3-one] | < 100 | 
CC(C)(COCCC(=O)N1CCN(c2ccc(C#N)cn2)CC1)Nc1cn[nH]c(=O)c1C(F)(F)F [Example 519, 6-[4-[3-(2-Methyl-2-[[6-oxo-5-(trifluoromethyl)-1,6-dihydropyridazin-4-yl]amino]propoxy)propanoyl]piperazin-1-yl]pyridine-3-carbonitrile] | < 100 | 
N#Cc1ccc(N2CCN(C(=O)c3cncc(OC[C@H]4c5ccccc5CN4c4cn[nH]c(=O)c4C(F)(F)F)n3)CC2)nc1 [Example 72B, 6-[4-[(6-[[(1R)-2-[6-oxo-5-(trifluoromethyl)-1,6-dihydropyridazin-4-yl]-2,3-dihydro-1H-isoindol-1-yl]methoxy]pyrazin-2-yl)carbonyl]piperazin-1-yl]pyridine-3-carbonitrile] | < 100 | 
COC[C@H](COc1cn[nH]c(=O)c1C(F)(F)F)OCCC(=O)N1CCN(c2ncc(Cl)cn2)CC1 [Example 560B, 5-[(2R)-2-[3-[4-(5-chloropyrimidin-2-yl)piperazin-1-yl]-3-oxopropoxy]-3-methoxypropoxy]-4-(trifluoromethyl)-2,3-dihydropyridazin-3-one] | 100 to 1000 | 
N#Cc1ccc(N2CCN(C(=O)CCOC[C@@H]3c4ccccc4CN3c3cn[nH]c(=O)c3C(F)(F)F)CC2)nc1 [Example 93A, 6-[4-(3-[[(1S)-2-[6-oxo-5-(trifluoromethyl)-1,6-dihydropyridazin-4-yl]-2,3-dihydro-1H-isoindol-1-yl]methoxy]propanoyl)piperazin-1-yl]pyridine-3-carbonitrile] |  | growth of NCI-H1373 lung cancer cells [1]: dose-dependent decrease in growth; tumor growth (CT26 cells): significantly reduce tumor growth; tumor growth (4T1-luc2-1A4 cells): significantly reduce tumor growth
N#Cc1ccc(N2CCN(C(=O)CCOC[C@@H]3CCCN3c3cn[nH]c(=O)c3C(F)(F)F)CC2)nc1 [Example 98, 6-[4-(3-[[(2S)-1-[6-Oxo-5-(trifluoromethyl)-1,6-dihydropyridazin-4-yl]pyrrolidin-2-yl]methoxy]propanoyl)piperazin-1-yl]pyridine-3-carbonitrile] |  | growth of NCI-H1373 lung cancer cells [1]: dose-dependent decrease in growth; interferon-beta (IFN-β) levels [2]: induction of interferon-beta (IFN-β) levels; interferon-beta (IFN-β) levels [3]: induction of interferon-beta (IFN-β) levels; tumor growth (CT26 cells): significantly reduce tumor growth; tumor growth (4T1-luc2-1A4 cells): significantly reduce tumor growth
N#Cc1ccc(N2CCN(C(=O)c3cccc(OCCOc4cccc5c4CN(c4cn[nH]c(=O)c4C(F)(F)F)C5)c3)CC2)nc1 [Example 39, 6-[4-([3-[2-([2-[6-Oxo-5-(trifluoromethyl)-1,6-dihydropyridazin-4-yl]-2,3-dihydro-1H-isoindol-4-yl]oxy)ethoxy]phenyl]carbonyl)piperazin-1-yl]pyridine-3-carbonitrile] |  | growth of NCI-H1373 lung cancer cells [1]: dose-dependent decrease in growth
O=C(CCOCCNc1cn[nH]c(=O)c1C(F)(F)F)N1CCN(c2ccc(Cl)cn2)CC1 [Example 506, 5-[(2-[3-[4-(5-Chloropyridin-2-yl)piperazin-1-yl]-3-oxopropoxy]ethyl)amino]-4-(trifluoromethyl)-2,3-dihydropyridazin-3-one] | < 100 | 
N#Cc1ccc(N2CCC3C2CCN3C(=O)CCOC[C@@H]2CCCN2c2cn[nH]c(=O)c2C(F)(F)F)nc1 (stereo partly drawn) [Example 110, 6-[4-(3-[[(2S)-1-[6-oxo-5-(trifluoromethyl)-1,6-dihydropyridazin-4-yl]pyrrolidin-2-yl]methoxy]propanoyl)-octahydropyrrolo[3,2-b]pyrrol-1-yl]pyridine-3-carbonitrile] | < 100 | 

Now from value to compound, other results behind:

IC50 (TIPARP (PARP7)) [nM] | Compound | further results
≥ 1000 | N#Cc1ccc(N2CCN(C(=O)CCO[C@H]3Cc4ccccc4[C@@H]3Nc3cn[nH]c(=O)c3C(F)(F)F)CC2)nc1 [Example 537A] | 
< 100 | N#Cc1ccc(N2CCN(C(=O)c3ccnc(OC[C@@H]4c5ccccc5CN4c4cn[nH]c(=O)c4C(F)(F)F)n3)CC2)nc1 [Example 38A, 6-[4-[(2-[[(1S)-2-[6-Oxo-5-(trifluoromethyl)-1,6-dihydropyridazin-4-yl]-2,3-dihydro-1H-isoindol-1-yl]methoxy]pyrimidin-4-yl)carbonyl]piperazin-1-yl]pyridine-3-carbonitrile] | 
100 to 1000 | N#Cc1ccc(N2CCN(C(=O)c3ccc(OC[C@H]4c5ccccc5CN4c4cn[nH]c(=O)c4C(F)(F)F)cc3)CC2)nc1 [Example 35B, 6-[4-[(4-[[(1R)-2-[6-oxo-5-(trifluoromethyl)-1,6-dihydropyridazin-4-yl]-2,3-dihydro-1H-isoindol-1-yl]methoxy]phenyl)carbonyl]piperazin-1-yl]pyridine-3-carbonitrile] | 
< 100 | N#Cc1ccc(N2CCN(C(=O)CNCC[C@H]3c4ccccc4CN3c3cn[nH]c(=O)c3C(F)(F)F)CC2)nc1 [Example 144A, 6-[4-[2-([2-[(1S)-2-[6-oxo-5-(trifluoromethyl)-1,6-dihydropyridazin-4-yl]-2,3-dihydro-1H-isoindol-1-yl]ethyl]amino)acetyl]piperazin-1-yl]pyridine-3-carbonitrile] | 
